Reference: patent US20090062277A1, “PHOSPHODIESTERASE 10 INHIBITORS” (priority 2007, published 2009)

Molecular target: T1, mPDE10A7 (Mus musculus, UniProt Q8CA95)
T1 sequence (Q8CA95 446-763 limits assumed): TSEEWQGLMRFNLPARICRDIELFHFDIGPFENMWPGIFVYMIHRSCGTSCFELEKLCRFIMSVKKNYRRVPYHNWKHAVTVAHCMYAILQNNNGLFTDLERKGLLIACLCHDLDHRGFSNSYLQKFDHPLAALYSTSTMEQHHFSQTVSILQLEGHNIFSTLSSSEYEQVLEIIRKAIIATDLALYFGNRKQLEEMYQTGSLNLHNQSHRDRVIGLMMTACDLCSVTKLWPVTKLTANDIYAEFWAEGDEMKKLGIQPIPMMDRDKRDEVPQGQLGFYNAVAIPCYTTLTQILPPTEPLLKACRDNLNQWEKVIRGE
Experiment: mPDE10A7 enzyme inhibition (IMAP fluorescence polarization)
Assay type: biochemical
Conditions: fluorescein labeled cAMP or cGMP substrate, 30 min at room temperature
Protocol: Enzyme Activity. To analyze the enzyme activity, 5 μL of serial diluted mPDE10A7 containing lysate were incubated with equal volumes of diluted (100-fold) fluorescein labeled cAMP or cGMP for 30 min in MDC HE 96-well assay plates (Molecular Devices Corp., Sunnyvale Calif.) at room temperature. Both the enzyme and the substrates were diluted in the following assay buffer: Tris/HCl (pH 8.0) 50 mM, MgCl2 5 mM, 2-mercaptoethanol 4 mM, and BSA 0.33 mg/mL. After incubation, the reaction was stopped by adding 20 μL of diluted (400-fold) binding reagents and was incubated for an hour at room temperature. The plates were counted in an Analyst GT (Molecular Devices) for fluorescence polarization. An IMAP assay kit (Molecular Devices) was used to assess enzyme properties of mPDE10A7. Data were analyzed with SOFTMAX PRO software (Molecular Devices).
Enzyme Inhibition. To check the inhibition profile, 10 μL of serial diluted compounds were incubated with 30 μl of diluted PDE enzymes in a 96-well polystyrene assay plate for 30 min at room temperature. After incubation, 5 μL of the compound-enzyme mixture were aliquoted into a MDC HE black plate, mixed with 5 μl of 100-fold diluted fluorescein labeled substrates (cAMP or cGMP), and incubated for 30 min at room temperature. The reaction was stopped by adding 20 μL of diluted binding reagents and counted in an Analyst GT for fluorescence polarization. The data were analyzed with SoftMax Pro.

IC50	SMILES
5.58 nM	COc1cc2nncc(-c3ccc(N4CCC(O)(c5ccccn5)CC4)nc3)c2cc1OC [Cpd 2, 1-(5-(6,7-dimethoxycinnolin-4-yl)pyridin-2-yl)-4-(pyridin-2-yl)piperidin-4-ol]
2.8 nM	COc1cc2nncc(-c3cnc(N4CCC(O)(C5CC5)CC4)c(C)c3)c2cc1OC [Cpd 4, 4-cyclopropyl-1-(5-(6,7-dimethoxycinnolin-4-yl)-3-methylpyridin-2-yl)piperidin-4-ol]
0.6 nM	COc1cc2nncc(-c3cnc(N4CCC(C)(O)CC4)c(C)c3)c2cc1OC [Cpd 7, 1-(5-(6,7-dimethoxycinnolin-4-yl)-3-methylpyridin-2-yl)-4-methylpiperidin-4-ol]
3.07 nM	COc1cc2nncc(-c3cnc(N4CCC(O)(c5ccccn5)CC4)c(Cl)c3)c2cc1OC [Cpd 8, 1-(3-chloro-5-(6,7-dimethoxycinnolin-4-yl)pyridin-2-yl)-4-(pyridin-2-yl)piperidin-4-ol]
1 nM	COC[C@H]1CCCN1c1ncc(-c2cnnc3cc(OC)c(OC)cc23)cc1Cl [Cpd 9]
14.7 nM	COc1cc2cncc(-c3cnc(N4CCC(C(C)(C)O)CC4)c(C)c3)c2cc1OC [Cpd 12]
1.02 nM	COc1cc2nncc(-c3cnc(N4CCC(O)(c5cccnc5)CC4)c(C)c3)c2cc1OC [Cpd 13]
417 nM	COc1cc2nncc(-c3ccc(N4CCN(c5ncc(Cl)cc5Cl)CC4)nc3)c2cc1OC [Cpd 14]
126 nM	COc1cc2nncc(-c3ccc(N4CCN(c5cccc(C(F)(F)F)c5)CC4)nc3)c2cc1OC [Cpd 15]
11 nM	COc1cc2nncc(-c3cnc(N4CCN(c5ccc(F)cc5F)CC4)c(C)c3)c2cc1OC [Cpd 16]
10.2 nM	COc1cc2nncc(-c3ccc(N4CCN(CC5CC5)CC4)nc3)c2cc1OC [Cpd 17]
6.56 nM	COc1cc2nncc(-c3ccc(N4CCN(C(C)=O)CC4)nc3)c2cc1OC [Cpd 18]
60.2 nM	COc1cc2nncc(-c3ccc(N4CCCC4CN(C)C)nc3)c2cc1OC (centres unmarked) [Cpd 20]
4.85 nM	COc1cc2nncc(-c3ccc(N4CCN(C(=O)C5CC5)CC4)nc3)c2cc1OC [Cpd 22]
4.22 nM	COc1cc2nccc(-c3cnc(N4CCC(C(C)(C)O)CC4)c(C)c3)c2cc1OC [Cpd 24]
7.42 nM	COc1cc2nncc(-c3ccc(N4CCCC4c4cccs4)nc3)c2cc1OC (centres unmarked) [Cpd 25]
5.63 nM	COc1cc2nncc(-c3ccc(N4CCC(C(=O)N5CCOCC5)CC4)nc3)c2cc1OC [Cpd 27]
2.08 nM	COc1cc2nncc(-c3cnc(N4CCC(C(N)=O)CC4)c(C)c3)c2cc1OC [Cpd 28]
9.57 nM	CCOC(=O)C1CCN(c2ccc(-c3cnnc4cc(OC)c(OC)cc34)cn2)CC1 [Cpd 30]
191 nM	COc1cc2c(-c3ccc(N4CCC(O)(c5ccccc5)CC4)nc3)cnnc2cc1C [Cpd 35]
